Test results taken from patent publication US20110245159A1, “Salts, Solvates and Pharmaceutical Compositions of Macrocyclic Ghrelin Receptor Agonists and Methods of Using the Same” (priority 2009, published 2011).

Assays:
[1] = Solubility of compound 298 salts, HPLC-CLND; details: 20 mg compound 298 + 0.5 mL aqueous acid (1.1 eq), agitated 72 h
Procedure: The pH of the solution was then measured and the amount of dissolved salt determined by HPLC-CLND analysis.

GH secretion = details: animal models; cited from earlier work
POI = details: unspecified formulation; cited from earlier work
[2] = humans, unspecified formulation; cited from earlier work
diabetic gastroparesis = details: unspecified formulation; cited from earlier work
[3] = Static hygroscopicity study; type: physicochemical; details: 3 months, 80% RH, 25° C.
Procedure: The static hygroscopicity study was performed by exposing compound 298.HCl.H2O for a period of 3 months to 80% RH humidity at 25° C. […] The sample was analyzed at 1-week, 1-month, 2-month and 3-month time points by the following methods: DSC, thermogravimetric analysis and Karl-Fischer titrimetry.

[4] = Stability testing of compound 298.HCl.H2O at storage conditions; type: physicochemical
Excerpt: For determining the stability of an active pharmaceutical ingredient (API) or a pharmaceutical composition, the approach as outlined for regulatory purposes in International Conference on Harmonisation of Technical Requirements for Registration of Pharmaceuticals for Human Use (ICH) Q1A Guideline: Stability Testing of New Drug Substances and Products, February 2003, can be followed. In summary, this entails repetition of certain analytical tests on samples stored at three representative controlled conditions to ascertain whether or not any degradation or loss of potency has occurred. The typical conditions employed are: (1) 25° C.±2° C., 60%±5% relative humidity (RH); (2) 30° C.±2° C., 65%±5% RH; (3) 40° C.±2° C., 75%±5% RH (often termed accelerated stability). The photostability as outlined in International Conference on Harmonisation of Technical Requirements for Registration of Pharmaceuticals for Human Use (ICH) Q1B Guideline: Stability Testing: Photostability Testing of New Drug Substances and Products, November 1996, is typically also investigated.
The purpose of this procedure is to determine the purity of representative salts, solvates and polymorphs of the invention by reverse phase HPLC. Any appropriate detection method compatible with HPLC can be utilized, such as single or dual wavelength ultraviolet (UV) detection, evaporative light scattering detection (ELSD) or chemiluminescent nitrogen detection (CLND). For most cases, UV detection would be preferred. Purity can be determined by peak area %. The same assay conditions are used to determine the level of impurities and the potency. The parameters for this HPLC assay are delineated below.
Moisture level is determined by Karl Fischer titrimetry using the direct titration method, in accordance with USP <921 1a>.

[5] = Dynamic vapor sorption/desorption (DVS) hygroscopicity; type: physicochemical
Procedure: The hygroscopicity of salts, solvates and polymorphs of the invention can be assessed by both static and dynamic hygroscopicity studies. For the latter, dynamic vapor sorption/desorption (DVS) experiments can be performed on an SGA-100 gravimetric sorption analyzer (or similar). The experimental protocol typically included full weight equilibrium at 0% RH.
The hygroscopicity of compound 298.HCl.H2O was assessed by both static and dynamic vapor sorption/desorption (DVS) experiments were performed at 25° C. according to Method 4M.

[6] = rat, in vivo, sc
Procedure: Formulations A, B-1, B-2 and B-3 were administered to male Sprague-Dawley rats subcutaneously (sc) at a dosing volume of 5 mL/kg.
Blood was collected via the JVC into tubes containing sodium EDTA (NaEDTA) and placed on ice until centrifugation. Samples were centrifuged at 13,000 rpm for 5 min with the temperature maintained at 4° C. Plasma was separated and stored frozen on dry ice prior to analysis.
The pharmacokinetic (PK) parameters for each animal were calculated using non-compartmental modeling (extravascular input model) and WinNonlin software (version 5.2, Pharsight). The half-life (t1/2), Area Under the Concentration Versus Time Curve from time 0 to the last quantifiable point (AUC0-t) and to infinity (AUC0-∞) were calculated and the observed Cmax and Tmax tabulated for each animal and dose group. […] The terminal elimination rate constant was calculated for the purpose of obtaining the extrapolated AUC0-∞ values.

[7] = Batch 1, 25° C., 60% RH, 12 mos
[8] = Batch 1, 25° C., 60% RH, 18 mos
[9] = Batch 1, 25° C., 60% RH, 24 mos
[10] = Example 3, 25° C., 60% RH, 0 mos
[11] = Example 3, 25° C., 60% RH, 3 mos
[12] = Example 3, 25° C., 60% RH, 6 mos
[13] = Example 3, 25° C., 60% RH, 9 mos
[14] = Example 3, 25° C., 60% RH, 12 mos
[15] = Example 3, 25° C., 60% RH, 18 mos
[16] = Example 3, 40° C., 75% RH, 0 mos
[17] = Example 3, 40° C., 75% RH, 1 mos
[18] = Example 3, 40° C., 75% RH, 3 mos
[19] = Example 3, 40° C., 75% RH, 6 mos

Fumarate
pH at 72 hr [1]: 3.6

C[C@@H]1CN[C@@H](C2CC2)C(=O)N(C)[C@H](C)C(=O)N[C@H](Cc2ccc(F)cc2)C(=O)NCCCc2ccccc2O1 [compound 298]
Concurrent GH secretion (GH secretion): did not stimulate concurrent GH secretion | Efficacy for the treatment of POI (POI): efficacy | Safety and pharmacokinetic properties [2]: appropriate safety and pharmacokinetic properties | Efficacy for the treatment of diabetic gastroparesis (diabetic gastroparesis): efficacy

CC1CNC(C2CC2)C(=O)N(C)C(C)C(=O)NC(Cc2ccc(F)cc2)C(=O)NCCCc2ccccc2O1.Cl.O (stereo not drawn) [Compound 298•HCl•H2O]
Deliquescence [3]: No deliquescence was detected | Hygroscopicity ([3]; static study): essentially non-hygroscopic | HPLC Assay (% Purity) ([4]; Batch 1, 5° C., 0 mos): 100.48% | Total Impurities (%) ([4]; Batch 1, 5° C., 0 mos): 0.41% | HPLC Assay (% Purity) ([4]; Batch 1, 5° C., 3 mos): 98.72% | Total Impurities (%) ([4]; Batch 1, 5° C., 3 mos): 0.39% | HPLC Assay (% Purity) ([4]; Batch 1, 5° C., 6 mos): 98.48% | Total Impurities (%) ([4]; Batch 1, 5° C., 6 mos): 0.42% | HPLC Assay (% Purity) ([4]; Batch 1, 5° C., 9 mos): 100.78% | Total Impurities (%) ([4]; Batch 1, 5° C., 9 mos): 0.47% | HPLC Assay (% Purity) ([4]; Batch 1, 5° C., 12 mos): 98.19% | Total Impurities (%) ([4]; Batch 1, 5° C., 12 mos): 0.42% | HPLC Assay (% Purity) ([4]; Batch 1, 5° C., 18 mos): 98.68% | Total Impurities (%) ([4]; Batch 1, 5° C., 18 mos): 0.43% | HPLC Assay (% Purity) ([4]; Batch 1, 5° C., 24 mos): 100.15% | Total Impurities (%) ([4]; Batch 1, 5° C., 24 mos): 0.43% | HPLC Assay (% Purity) ([4]; Batch 1, 25° C., 60% RH, 0 mos): 100.48% | Total Impurities (%) ([4]; Batch 1, 25° C., 60% RH, 0 mos): 0.41% | HPLC Assay (% Purity) ([4]; Batch 1, 25° C., 60% RH, 1 mos): 98.99% | Total Impurities (%) ([4]; Batch 1, 25° C., 60% RH, 1 mos): 0.40% | HPLC Assay (% Purity) ([4]; Batch 1, 25° C., 60% RH, 3 mos): 98.39% | Total Impurities (%) ([4]; Batch 1, 25° C., 60% RH, 3 mos): 0.40% | HPLC Assay (% Purity) ([4]; Batch 1, 25° C., 60% RH, 6 mos): 98.81% | Total Impurities (%) ([4]; Batch 1, 25° C., 60% RH, 6 mos): 0.42% | HPLC Assay (% Purity) ([4]; Batch 1, 25° C., 60% RH, 9 mos): 100.65% | Total Impurities (%) ([4]; Batch 1, 25° C., 60% RH, 9 mos): 0.46% | HPLC Assay (% Purity) [4, 7]: 97.59% | Total Impurities (%) [4, 7]: 0.49% | HPLC Assay (% Purity) [4, 8]: 99.81% | Total Impurities (%) [4, 8]: 0.21% | HPLC Assay (% Purity) [4, 9]: 100.24% | Total Impurities (%) [4, 9]: 0.48% | HPLC Assay (% Purity) ([4]; Batch 1, 40° C., 75% RH, 0 mos): 100.48% | Total Impurities (%) ([4]; Batch 1, 40° C., 75% RH, 0 mos): 0.41% | HPLC Assay (% Purity) ([4]; Batch 1, 40° C., 75% RH, 1 mos): 98.49% | Total Impurities (%) ([4]; Batch 1, 40° C., 75% RH, 1 mos): 0.39% | HPLC Assay (% Purity) ([4]; Batch 1, 40° C., 75% RH, 3 mos): 98.22% | Total Impurities (%) ([4]; Batch 1, 40° C., 75% RH, 3 mos): 0.40% | HPLC Assay (% Purity) ([4]; Batch 1, 40° C., 75% RH, 6 mos): 98.41% | Total Impurities (%) ([4]; Batch 1, 40° C., 75% RH, 6 mos): 0.44% | HPLC Assay (% Purity) [4, 10]: 99.9% | Potency Assay (HPLC wt %) [4, 10]: 89.1 wt % | Total Impurities (%) [4, 10]: 0.06% | Water Content (%) [4, 10]: 3.9% | HPLC Assay (% Purity) [4, 11]: 99.9% | Potency Assay (HPLC wt %) [4, 11]: 90.2 wt % | Total Impurities (%) [4, 11]: 0.12% | Water Content (%) [4, 11]: 4.2% | HPLC Assay (% Purity) [4, 12]: 99.9% | Potency Assay (HPLC wt %) [4, 12]: 90.1 wt % | Total Impurities (%) [4, 12]: 0.07% | Water Content (%) [4, 12]: 4.1% | HPLC Assay (% Purity) [4, 13]: 99.9% | Potency Assay (HPLC wt %) [4, 13]: 90.5 wt % | Total Impurities (%) [4, 13]: 0.06% | Water Content (%) [4, 13]: 4.3% | HPLC Assay (% Purity) [4, 14]: 99.9% | Potency Assay (HPLC wt %) [4, 14]: 89.9 wt % | Total Impurities (%) [4, 14]: 0.06% | Water Content (%) [4, 14]: 3.1% | HPLC Assay (% Purity) [4, 15]: 99.8% | Potency Assay (HPLC wt %) [4, 15]: 89.8 wt % | Total Impurities (%) [4, 15]: 0.07% | Water Content (%) [4, 15]: 4.0% | HPLC Assay (% Purity) [4, 16]: 99.9% | Potency Assay (HPLC wt %) [4, 16]: 89.1 wt % | Total Impurities (%) [4, 16]: 0.06% | Water Content (%) [4, 16]: 3.9% | HPLC Assay (% Purity) [4, 17]: 99.8% | Potency Assay (HPLC wt %) [4, 17]: 88.4 wt % | Total Impurities (%) [4, 17]: 0.18% | Water Content (%) [4, 17]: 3.5% | HPLC Assay (% Purity) [4, 18]: 99.9% | Potency Assay (HPLC wt %) [4, 18]: 92.1 wt % | Total Impurities (%) [4, 18]: 0.12% | Water Content (%) [4, 18]: 3.7% | HPLC Assay (% Purity) [4, 19]: 99.9% | Potency Assay (HPLC wt %) [4, 19]: 89.6 wt % | Total Impurities (%) [4, 19]: 0.07% | Water Content (%) [4, 19]: 4.2% | XRPD analysis ([4]; Example 3, both storage conditions after 6 months): still consistent with the standard pattern | Appearance as a white powder ([4]; Example 3, over the 6 month period): remained unchanged | Hygroscopicity [5]: Non-hygroscopic | Hygroscopicity ([5]; DVS, 25° C.): essentially non-hygroscopic | Weight change ([5]; DVS, 25° C., 20%-90% relative humidity range): 1% | Weight loss (lattice water lost) ([5]; DVS, 25° C., equilibration at 0% RH): 2.6% | AUC0-∞ dependence on dose [6]: increased proportionally with dose | Increase in Cmax with dose [6]: less than dose-proportional
